Measurements: patent publication US20250073209A1, “COVALENT TARGETING OF RhoA FOR CANCER THERAPY” (The University of Hong Kong, priority 2023, published 2025)

Tests used:
RhoA = assay: FRET-RhoA biosensor imaging, serum re-stimulation; type: cell-based, human; settings: transfected cells, serum-free 24 h, 10% FBS 10 min
Method: To further validate the inhibitory effects of CL16 on RhoA, HCT116 and HT29 cells were transfected with a FRET-RhoA biosensor, where cells with elevated RhoA activity would show a higher FRET/mTFP1. Specifically, HCT116 cells transfected with FRET-RhoA biosensor were treated with CL16 or solvent in serum-free medium for 24 h, washed with PBS, re-stimulated with 10% FBS for 10 min, washed, and then imaged in HBSS by confocal fluorescence microscopy. […] In addition, HCT116 cells were serum-starved and treated with CL16 or Rhosin for 24 h, followed by 10% FBS re-stimulation for 10 min. The cells were then washed and fixed by 4% paraformaldehyde, washed with PBS and stained with Alexa Fluor 488-Phalloidin in PBS (1:20, v/v) at room temperature for 15 min. The cells were washed with PBS, incubated with Hoechst (8.2 μM) in PBS for 15 min, washed and then imaged in PBS by confocal fluorescence microscopy. […] Since RhoA regulates cytoskeletal dynamics and RhoA activation can induce the formation of contractile F-actin, the reduction of F-actin fibers by CL16 treatment supports its inhibitory roles on RhoA signaling.

FLAG-RhoA = target: T1, FLAG-RhoA (Homo sapiens, UniProt P61586); assay: CL16-alkyne labeling of FLAG-RhoA in HCT116 cells (anti-FLAG IP, CuAAC, in-gel fluorescence); type: cell-based; settings: pre-incubation 2 h
T1 construct: expressed in transfected cells; host or cells: HCT116
Method: HCT116 cells transiently expressing FLAG-RhoA were pre-treated with solvent vehicle or CL16 for 2 h, followed by the incubation with CL16-alkyne in complete medium for another 2 h. The cells were then lysed and subjected to immunoprecipitation by anti-FLAG beads. The enriched proteins were reacted with rhodamine azide through copper-catalyzed azide-alkyne cycloaddition (CuAAC), boiled with sampling buffer and separated by SDS-PAGE. The protein bands were then visualized by their in-gel fluorescence or blotted for RhoA. […] HCT116 cells were pre-treated with solvent vehicle or CL16 for 2 h, followed by the incubation with CL16-alkyne in complete medium for another 2 h. The cells were then lysed, reacted with rhodamine azide through CuAAC, boiled with sampling buffer, separated by SDS-PAGE and imaged. […]
To identify protein target and any off-targets of CL16 in CRCs, a molecular probe of CL16, CL16-alkyne (FIG. 6A), was synthesized. […] The protein bands were then visualized by their in-gel fluorescence or blotted for RhoA. […] The probe-labeled proteins were installed with rhodamine through CuAAC, and visualized by their in-gel fluorescence after SDS-PAGE. A protein band with strong fluorescence was found at −22 kDa in the sample incubated with CL16-alkyne only, in line with the molecular weight of RhoA (FIG. 6C).

CRC xenografts = assay: H&E and immunohistochemistry on tissues of nude mice with CRC xenografts; type: in vivo, mouse
Source text: FIGS. 14A and 14B are graphs showing immunohistochemistry staining scores for the images of H&E and immunohistochemistry staining of Ki67 (FIG. 14A) and cleaved caspase-3 staining (FIG. 14B) of tumor tissues from the vehicle- or CL16-treated mice. FIGS. 14C and 14D are graphs showing immunohistochemistry staining scores for the images of H&E, Ki67 (FIG. 14C) and cleaved caspase-3 (FIG. 14D) staining of tumor tissues from the vehicle- or CL16-treated mice with HT29 xenografts.
After confirming the anticancer properties of CL16 on CRC cells and RhoA Cys16 as its primary molecular target, the anticancer effect of CL16 in vivo was studied.

T1 sequence (P61586 whole entry): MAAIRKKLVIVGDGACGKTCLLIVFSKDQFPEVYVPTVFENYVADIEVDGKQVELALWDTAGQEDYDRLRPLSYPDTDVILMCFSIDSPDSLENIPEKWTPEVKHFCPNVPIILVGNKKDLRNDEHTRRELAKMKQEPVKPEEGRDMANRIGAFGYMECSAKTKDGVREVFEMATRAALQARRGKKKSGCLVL

In the case of `O=C(CCl)N1N=C(c2cc3ccccc3o2)CC1c1ccco1` (centres unmarked) [CL16], the “FRET/mTFP1 upon serum re-stimulation” value (RhoA) was “abolishment of the increase in FRET/mTFP1”, the “competition with CL16-alkyne labeling of FLAG-RhoA” value (FLAG-RhoA) was “competed with the alkyne probe labeling” and the “H&E staining of major organs” value (CRC xenografts; CL16-treated mice) was “no observable damages on major organs”. For the same molecule, the “Ki67 immunohistochemistry on tumor tissues” value (CRC xenografts; CL16-treated vs solvent) was “reduction in Ki67” and the “cleaved caspase-3 level in tumor tissues” value (CRC xenografts; CL16-treated vs vehicle) was “elevated cleaved caspase-3 level”.
